Results on three compounds are retold here after patent US20130172374A1, “SOLID COMPOSITION FOR CONTROLLED RELEASE OF IONIZABLE ACTIVE AGENTS WITH POOR AQUEOUS SOLUBILITY AT LOW PH AND METHODS OF USE THEREOF” (Portola Pharmaceuticals, Inc., priority 2008, published 2013).

Like-named read-outs stand apart in the source and are kept apart here.

In general, aqueous solubility refers to the dissolved amount per volume that the medium holds.

The conditions of series [1]: known drug, background; cited from earlier work.
The conditions of series [2]: known drug, background; cited from earlier work. This is another data set of the same source.
For series [3] the following is noted: known drug, background; cited from earlier work. The source holds these as a separate data set.
A short description of a further series: logD (pH7.4). Type of series: physicochemical.
The next series can be described thus: pKa. The series is classed as physicochemical.
A short description of a further series: aqueous solubility. Type of series: physicochemical.
Another series can be described thus: moisture sensitivity. The series is classed as physicochemical.
Another series can be described thus: logP. The series is classed as physicochemical.

For the compound `CC(C(=O)O)c1cccc(C(=O)c2ccccc2)c1` (racemic) [Ketoprofen, (RS)-2-(3-benzoylphenyl)propanoic acid], in series [1], the pKa result is “about 5.94”. Further, the logP entry in series [2] was “about 0.97”. In series [3], the “logD (pH7.4)” value was “about 1.34”.
Regarding `CNc1cc2[nH]c(=O)n(-c3ccc(NC(=O)NS(=O)(=O)c4ccc(Cl)s4)cc3)c(=O)c2cc1F.[K]` [Compound 1, [4-(6-fluoro-7-methylamino-2,4-dioxo-1,4-dihydro-2H-quinazolin-3-yl)-phenyl]-5-chloro-thiophen-2-yl-sulfonylurea potassium salt], the “logD (pH7.4)” value in the series “logD (pH7.4)” was “about −1.6”. In “pKa”, the pKa entry was “about 3.3”. For the same compound, in the series “aqueous solubility” (at about 37° C.), the aqueous solubility is < 100 µg/mL. In addition, the “aqueous solubility of the free acid form” value in the series “aqueous solubility” (free acid form, pH 1.0-7.4) is < 100 µg/mL. In “moisture sensitivity”, the moisture sensitivity result is on record as “moisture sensitive”. In “logP”, the logP result is recorded as “about 2.5”.
Take `COc1ccc2c(c1)c(CC(=O)O)c(C)n2C(=O)c1ccc(Cl)cc1` [Indomethacin]: the logP result in series [2] is “about 3.8”. In addition, the “logD (pH7.4)” value in series [3] is “about 0.30”.
